Assay results as given in ChEMBL document CHEMBL1201862, “PubChem BioAssay data set” (2004).
Calls of active or inactive are those of the source. Cut-off read from the data, not from the text of the source, for most assays here: actives have a measured EC50 and inactives only a lower limit.

Columns and labels:
[1] = inhibitors of SNCA 5'UTR-driven reporter translation, confirmation, H4 neuroglioma cells, luminescence (AID 1988); format: functional, cell-based
[2] = Luminescence Cell-Based Dose Response HTS to Identify Inhibitors of 5'UTR Stem-Loop Driven Prion Protein mRNA Translation in H4 Neuroglioblastoma Cells. [Related pubchem assays: 1827 (Project Summary), 1813 (Primary HTS)]; format: functional
[3] = inhibitors of firefly luciferase expression or activity, dose response, H4 neuroglioma cells, luminescence (AID 1990); format: functional, cell-based
[4] = molecular target: Induced myeloid leukemia cell differentiation protein Mcl-1 (Homo sapiens, UniProt Q07820); format: functional
[5] = molecular target: T1, Carboxy-terminal domain RNA polymerase II polypeptide A small phosphatase 1 (Homo sapiens, UniProt Q9GZU7); assay: inhibitors of CTDSP1, concentration-response testing, biochemical assay, absorbance-based, actives from ultra-high-throughput screening (AID 540297); format: functional
T1 sequence (Q9GZU7 whole entry): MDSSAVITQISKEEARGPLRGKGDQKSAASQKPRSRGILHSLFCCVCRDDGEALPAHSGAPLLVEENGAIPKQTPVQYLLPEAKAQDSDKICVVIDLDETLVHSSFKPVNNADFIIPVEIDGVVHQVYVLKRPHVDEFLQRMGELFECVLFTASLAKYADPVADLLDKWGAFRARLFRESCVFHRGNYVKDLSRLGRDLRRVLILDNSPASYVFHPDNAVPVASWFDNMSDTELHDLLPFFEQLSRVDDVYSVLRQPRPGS

[6] = cytotoxicity toward DRD oncogenic fibroblasts, dose response, cell-based, non-viral oncogenic, luminescence (AID 1934); format: functional; details: Homo sapiens
BJ [7] = assay: cells; format: functional, cell-based; details: Homo sapiens
BJ [8] = assay: cytotoxicity toward BJ-TERT-LT-ST fibroblasts, dose response, cell-based, RAS-independent, luminescence (AID 1935); format: functional; details: Homo sapiens;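 note: BJ fibroblasts immortalized with TERT plus LT and ST oncogenes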
BJ [9] = assay: cytotoxicity toward BJ-TERT fibroblasts, dose response, cell-based, RAS-independent, luminescence (AID 1933); format: functional; details: Homo sapiens
[10] = C. albicans growth with fluconazole, confirmation, fluorescence, retest (AID 2467); format: functional, cell-based
[11] = NIH-3T3 fibroblast cytotoxicity, dose response, cytotoxicity control, cell-based, fluorescence, Alamar Blue, secondary assay (AID 2327); format: functional;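 note: NIH-3T3 mouse fibroblasts cultured with fluconazole at 8 µg/mL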
[12] = molecular target: T2, Calpain-2 catalytic subunit (Sus scrofa, UniProt P43367); assay: pig calpain II inhibitor potency, dose response, biochemical, fluorogenic peptide substrate (AID 1420); format: functional
T2 sequence (P43367 whole entry): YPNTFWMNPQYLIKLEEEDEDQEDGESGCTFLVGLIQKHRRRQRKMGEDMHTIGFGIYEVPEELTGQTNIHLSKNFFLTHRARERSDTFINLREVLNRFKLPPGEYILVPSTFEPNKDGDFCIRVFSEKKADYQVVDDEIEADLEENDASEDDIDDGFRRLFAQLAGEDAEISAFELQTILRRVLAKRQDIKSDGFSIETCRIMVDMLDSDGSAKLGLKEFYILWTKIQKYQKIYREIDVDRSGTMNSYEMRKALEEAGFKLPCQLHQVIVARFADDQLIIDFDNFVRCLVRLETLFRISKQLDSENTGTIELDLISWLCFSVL

[13] = inhibitors of clade B AD8 Env fusion, dose response, cell-based, cherry-pick (AID 652062); format: functional;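 note: luciferase signal from cell-cell fusion driven by HIV-1 clade B AD8 Env; potency is for inhibitors of fusion seen as a drop in luminescence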

Chain of Induced myeloid leukemia cell differentiation protein Mcl-1 (Q07820 whole entry, the tested form may be a part): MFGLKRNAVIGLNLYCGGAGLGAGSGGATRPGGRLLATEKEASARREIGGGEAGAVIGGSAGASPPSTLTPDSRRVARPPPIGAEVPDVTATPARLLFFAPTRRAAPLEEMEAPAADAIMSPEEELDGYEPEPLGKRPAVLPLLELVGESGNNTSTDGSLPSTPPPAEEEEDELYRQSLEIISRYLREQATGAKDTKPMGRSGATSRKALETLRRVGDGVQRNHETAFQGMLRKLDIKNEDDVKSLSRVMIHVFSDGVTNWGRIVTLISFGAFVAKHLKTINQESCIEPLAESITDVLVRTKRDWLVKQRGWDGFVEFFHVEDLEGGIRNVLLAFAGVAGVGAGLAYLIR

Row | SMILES | EC50 [1] | EC50 [2] | EC50 [3] | also measured
1 | CCOc1cc(S(=O)(=O)n2cc(-c3ccc(F)cc3)c(N)n2)cc(OCC)c1OCC | > 120 µM (not active) | > 120 µM (not active) | 15.8 µM (active) | 
2 | Cc1ccc(NC2=NC(=O)/C(=C/C=C/c3ccco3)S2)cc1 |  |  |  | IC50 [4]: 8.32 µM (active)
3 | Cc1cc(=O)oc2cc(NC(=O)c3cc(F)ccc3F)ccc12 |  |  |  | IC50 [5]: 6.83 µM (active)
4 | COc1cc(/C=N/NC(=O)c2ccc([N+](=O)[O-])cc2Cl)cc(Br)c1O |  |  |  | IC50 [4]: 15.2 µM (not active)
5 | O=C1c2cccc3cc([N+](=O)[O-])cc(c23)C(=O)N1/N=C/c1ccc(O)cc1O |  |  |  | IC50 [4]: 1.44 µM (active)
6 | CC(C)n1c(SCC(=O)N2c3ccccc3Sc3ccccc32)nc2c1c(=O)n(C)c(=O)n2C | 22.2 µM (active) | 13.6 µM (active) | 13.3 µM (active) | 
7 | CCOc1ccc(C(=O)c2cc([N+](=O)[O-])ccc2Cl)cc1 |  |  |  | EC50 [6]: > 150 µM (not active); EC50 (BJ [7]): > 150 µM (not active); EC50 (BJ [8]): > 150 µM (not active); EC50 (BJ [9]): > 150 µM (not active)
8 | O=C(Nc1ccc(NC(=O)c2cccs2)cc1)c1ccc(Br)o1 |  |  |  | EC50 [10]: 2.22 µM (active); IC50 [5]: 7.45 µM (active); EC50 [11]: > 160 µM (inconclusive)
9 | CS(=O)(=O)N(CC(=O)NCCc1ccccc1)c1cccc([N+](=O)[O-])c1 |  |  |  | IC50 [12]: 5.74 µM (not active)
10 | CCC(C(=O)OCC(=O)Nc1ccccc1-c1ccccc1)c1ccccc1 (centres undefined) |  |  |  | IC50 [12]: 9.96 µM (not active)
11 | COc1ccccc1CNC(=O)COc1cc2c(c3oc(=O)cc(C)c13)CCC(C)(C)O2 | > 120 µM (not active) | > 120 µM (not active) | 16 µM (active) | 
12 | COC(=O)C1=C(Nc2ccc(C)cc2)C=C(C)C(C(=O)OC)C1c1ccc(OC)cc1 (centres undefined) | 11 µM (active) | 15.5 µM (active) | > 120 µM (not active) | 
13 | O=C(NCCNCc1ccccc1)c1ccco1 |  |  |  | IC50 [5]: 9.15 µM (active)
14 | CN(C)CCCNC(=O)[C@H]1[C@H](CO)[C@H]2Cn3c(ccc(C4=CCCC4)c3=O)[C@H]2N1CCC(F)(F)F |  |  |  | AC50 [13]: 1.09 µM (active)
15 | Cc1cc2ncc(S(C)(=O)=O)c(N)n2n1 | > 120 µM (not active) | > 120 µM (not active) | > 120 µM (not active) | 
16 | COCCNC(=O)NC(=O)CN1CCCc2ccccc21 |  |  |  | IC50 [12]: < 0.4 µM (not active)
17 | NNC(=O)c1nn(-c2ccccc2)cc1O | > 120 µM (not active) | > 120 µM (not active) | > 120 µM (not active) | 
